Laboratory results as given in US7365095B2, “Chromane and chromene derivatives and uses thereof” (Wyeth, priority 2005, dated 2008).
Counter-ions that a name gives are not always drawn.

How the values were obtained:
[1] = biological target: T1, human 5-hydroxytryptamine-2C (h5-HT2C) receptor (Homo sapiens, UniProt P28335); assay: [125I]DOI binding to membranes of CHO cells expressing h5-HT2C receptor; settings: read-out: 5-HT2C Binding Ki avg
T1 construct: expressed in transfected cells; host or cells: CHO (Chinese Hamster Ovary) cells; membrane preparation
T1 sequence (P28335 33-458): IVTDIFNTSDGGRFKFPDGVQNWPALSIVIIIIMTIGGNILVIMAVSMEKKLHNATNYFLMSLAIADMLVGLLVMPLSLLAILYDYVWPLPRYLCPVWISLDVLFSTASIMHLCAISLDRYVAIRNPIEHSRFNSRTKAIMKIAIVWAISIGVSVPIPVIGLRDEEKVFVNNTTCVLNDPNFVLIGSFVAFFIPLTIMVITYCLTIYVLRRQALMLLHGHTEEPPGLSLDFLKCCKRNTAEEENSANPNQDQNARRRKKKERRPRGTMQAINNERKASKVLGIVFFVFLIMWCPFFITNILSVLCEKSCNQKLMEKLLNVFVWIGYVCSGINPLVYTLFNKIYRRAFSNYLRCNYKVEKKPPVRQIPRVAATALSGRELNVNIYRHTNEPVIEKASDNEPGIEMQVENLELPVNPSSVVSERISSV

human 5-HT2C receptor = biological target: T2, human 5-HT2C receptor (Homo sapiens, UniProt P28335); assay: calcium mobilization (FLIPR) in CHO cells stably expressing the human 5-HT2C receptor; assay type: cell-based; settings: for Emax: CHO, read-out: 5-HT2C Function EMax (%); for EC50: calcium mobilization, read-out: 5-HT2C Function EC50
T2 sequence (P28335 33-458): T1 sequence (P28335 33-458)

| SMILES | Ki [1] | Emax (human 5-HT2C receptor) | EC50 (human 5-HT2C receptor) |
| --- | --- | --- | --- |
| COc1ccc(-c2cccc3c2O[C@H](CN)CC3)c(OC)c1 [Compound 32, {[(2S)-8-(2,4-dimethoxyphenyl)-3,4-dihydro-2H-chromen-2-yl]methyl}amine hydrochloride] | 10 to 50 nM | 90% | 50 to 200 nM |
| CNC[C@@H]1CCc2cccc(-c3cc(Cl)ccc3Cl)c2O1 [Compound 20, {[(2S)-8-(2,5-dichlorophenyl)-3,4-dihydro-2H-chromen-2-yl]methyl}methylamine hydrochloride] | ≤ 10 nM | 90% | < 50 nM |
| NC[C@@H]1CCc2cc(F)cc(-c3cc(Cl)ccc3Cl)c2O1 [Compound 55, {[(2S)-8-(2,5-dichlorophenyl)-6-fluoro-3,4-dihydro-2H-chromen-2-yl]methyl}amine hydrochloride] | ≤ 10 nM | 70% | 50 to 200 nM |
| NCC1CCc2cccc(-c3ccccc3Cl)c2O1 (stereo not drawn) [Compound 2, {[8-(2-chlorophenyl)-3,4-dihydro-2H-chromen-2-yl]methyl}amine trifluoroacetate] | ≤ 10 nM | 80% | < 50 nM |
| COc1ccc(-c2cccc3c2O[C@@H](CN)CC3)c(OC)c1 [Compound 16, {[(2R)-8-(2,4-dimethoxyphenyl)-3,4-dihydro-2H-chromen-2-yl]methyl}amine hydrochloride] | ≤ 10 nM | 100% | < 50 nM |
| NC[C@H]1CCc2cccc(-c3cccnc3)c2O1 [Compound 18, {[(2R)-8-pyridin-3-yl-3,4-dihydro-2H-chromen-2-yl]methyl}amine hydrochloride] | > 50 nM | 90% | < 50 nM |
| NC[C@@H]1CCc2cc(F)cc(-c3ccc(Cl)cc3Cl)c2O1 [Compound 56, {[(2S)-8-(2,4-dichlorophenyl)-6-fluoro-3,4-dihydro-2H-chromen-2-yl]methyl}amine hydrochloride] | 10 to 50 nM | 80% | 50 to 200 nM |
| NC[C@H]1CCc2cccc(-c3ccccc3Cl)c2O1 [Compound 11, {[(2R)-8-(2-chlorophenyl)-3,4-dihydro-2H-chromen-2-yl]methyl}amine hydrochloride] | ≤ 10 nM | 100% | < 50 nM |
| CCNC[C@H]1CCc2cc(F)cc(-c3c(Cl)cccc3Cl)c2O1 [Compound 58, N-{[(2R)-8-(2,6-dichlorophenyl)-6-fluoro-3,4-dihydro-2H-chromen-2-yl]methyl}ethanamine hydrochloride] | ≤ 10 nM | 60% | < 50 nM |
| NC[C@H]1C=Cc2cc(F)cc(-c3cc(Cl)ccc3Cl)c2O1 [Compound 63, {[(2R)-8-(2,5-dichlorophenyl)-6-fluoro-2H-chromen-2-yl]methyl}amine hydrochloride] | ≤ 10 nM | 90% | < 50 nM |
| NC[C@H]1CCc2cc(F)cc(-c3ccccc3)c2O1 [Compound 48, {[(2R)-6-fluoro-8-phenyl-3,4-dihydro-2H-chromen-2-yl]methyl}amine hydrochloride] | ≤ 10 nM | 90% | 50 to 200 nM |
| CNC[C@H]1CCc2cccc(-c3ccc(Cl)cc3Cl)c2O1 [Compound 4, {[(2R)-8-(2,4-dichlorophenyl)-3,4-dihydro-2H-chromen-2-yl]methyl}methylamine hydrochloride] | > 50 nM | 80% | < 50 nM |
| NC[C@H]1CCc2cccc(-c3cc(Cl)ccc3Cl)c2O1 [Compound 12, {[(2R)-8-(2,5-dichlorophenyl)-3,4-dihydro-2H-chromen-2-yl]methyl}amine hydrochloride] | 10 to 50 nM | 90% | 50 to 200 nM |
| Cc1ccccc1-c1cccc2c1O[C@H](CN)CC2 [Compound 33, {[(2S)-8-(2-methylphenyl)-3,4-dihydro-2H-chromen-2-yl]methyl}amine hydrochloride] | 10 to 50 nM | 80% | > 200 nM |
| NC[C@@H]1CCc2cccc(-c3ccccc3Cl)c2O1 [Compound 27, {[(2S)-8-(2-chlorophenyl)-3,4-dihydro-2H-chromen-2-yl]methyl}amine hydrochloride] | 10 to 50 nM | 80% | 50 to 200 nM |
| CNC[C@H]1CCc2cc(F)cc(-c3ccc(Cl)cc3Cl)c2O1 [Compound 41, {[(2R)-8-(2,4-dichlorophenyl)-6-fluoro-3,4-dihydro-2H-chromen-2-yl]methyl}methylamine hydrochloride] | 10 to 50 nM | 90% | 50 to 200 nM |
| CNC[C@H]1CCc2cccc(-c3c(Cl)cccc3Cl)c2O1 [Compound 35, {[(2R)-8-(2,6-dichlorophenyl)-3,4-dihydro-2H-chromen-2-yl]methyl}methylamine hydrochloride] | ≤ 10 nM | 90% | < 50 nM |

| SMILES | Ki [1] | Emax (human 5-HT2C receptor) | EC50 (human 5-HT2C receptor) |
| --- | --- | --- | --- |
| NC[C@@H]1CCc2cccc(-c3cc(Cl)ccc3Cl)c2O1 [Compound 28, {[(2S)-8-(2,5-dichlorophenyl)-3,4-dihydro-2H-chromen-2-yl]methyl}amine hydrochloride] | 10 to 50 nM | 100% | 50 to 200 nM |
| NC[C@H]1CCc2cccc(-c3ccc(Cl)cc3Cl)c2O1 [Compound 13, {[(2R)-8-(2,4-dichlorophenyl)-3,4-dihydro-2H-chromen-2-yl]methyl}amine hydrochloride] | ≤ 10 nM | 100% | < 50 nM |
| CNC[C@@H]1CCc2cccc(-c3ccc(Cl)cc3Cl)c2O1 [Compound 21, {[(2S)-8-(2,4-dichlorophenyl)-3,4-dihydro-2H-chromen-2-yl]methyl}methylamine hydrochloride] | > 50 nM | 80% | 50 to 200 nM |
| Cc1ccccc1-c1cc(F)cc2c1O[C@@H](CN)CC2 [Compound 49, {[(2R)-6-fluoro-8-(2-methylphenyl)-3,4-dihydro-2H-chromen-2-yl]methyl}amine hydrochloride] | ≤ 10 nM | 90% | < 50 nM |
| NCC1C=Cc2cc(F)cc(-c3ccccc3Cl)c2O1 (stereo not drawn) [Compound 62, {[8-(2-chlorophenyl)-6-fluoro-2H-chromen-2-yl]methyl}amine hydrochloride] | 10 to 50 nM | 100% | < 50 nM |
| NC[C@H]1C=Cc2cccc(-c3c(Cl)cccc3Cl)c2O1 [Compound 60, {[(2R)-8-(2,6-dichlorophenyl)-2H-chromen-2-yl]methyl}amine hydrochloride] | ≤ 10 nM | 100% | < 50 nM |
| CNC[C@H]1C=Cc2cccc(-c3c(Cl)cccc3Cl)c2O1 [Compound 59, {[(2R)-8-(2,6-dichlorophenyl)-2H-chromen-2-yl]methyl}methylamine hydrochloride] | ≤ 10 nM | 90% | < 50 nM |
| CNC[C@H]1CCc2cc(F)cc(-c3cc(Cl)ccc3Cl)c2O1 [Compound 40, {[(2R)-8-(2,5-dichlorophenyl)-6-fluoro-3,4-dihydro-2H-chromen-2-yl]methyl}methylamine hydrochloride] | ≤ 10 nM | 90% | < 50 nM |
| CNC[C@@H]1CCc2cccc(-c3ccccc3Cl)c2O1 [Compound 19, {[(2S)-8-(2-chlorophenyl)-3,4-dihydro-2H-chromen-2-yl]methyl}methylamine hydrochloride] | ≤ 10 nM | 80% | 50 to 200 nM |
| CNC[C@H]1CCc2cccc(-c3ccccc3C)c2O1 [Compound 8, N-methyl-N-{[(2R)-8-(2-methylphenyl)-3,4-dihydro-2H-chromen-2-yl]methyl}amine hydrochloride] | ≤ 10 nM | 100% | < 50 nM |
| CNC[C@H]1CCc2cc(F)cc(-c3ccccc3Cl)c2O1 [Compound 39, {[(2R)-8-(2-chlorophenyl)-6-fluoro-3,4-dihydro-2H-chromen-2-yl]methyl}methylamine hydrochloride] | ≤ 10 nM | 100% | < 50 nM |
| CNC[C@H]1CCc2cc(F)cc(-c3cccnc3)c2O1 [Compound 44, {[(2R)-6-fluoro-8-pyridin-3-yl-3,4-dihydro-2H-chromen-2-yl]methyl}methylamine hydrochloride] | 10 to 50 nM | 80% | > 200 nM |
| Cc1ccccc1-c1cc(F)cc2c1O[C@H](CN)CC2 [Compound 53, {[(2S)-6-fluoro-8-(2-methylphenyl)-3,4-dihydro-2H-chromen-2-yl]methyl}amine hydrochloride] | 10 to 50 nM | 70% | 50 to 200 nM |
| CNC[C@H]1CCc2cccc(-c3cc(Cl)ccc3Cl)c2O1 [Compound 3, {[(2R)-8-(2,5-dichlorophenyl)-3,4-dihydro-2H-chromen-2-yl]methyl}methylamine hydrochloride] | ≤ 10 nM | 90% | < 50 nM |
| NC[C@H]1CCc2cc(F)cc(-c3c(Cl)cccc3Cl)c2O1 [Compound 57, {[(2R)-8-(2,6-dichlorophenyl)-6-fluoro-3,4-dihydro-2H-chromen-2-yl]methyl}amine hydrochloride] | ≤ 10 nM | 80% | < 50 nM |
| NC[C@@H]1CCc2cc(F)cc(-c3ccccc3Cl)c2O1 [Compound 51, {[(2S)-8-(2-chlorophenyl)-6-fluoro-3,4-dihydro-2H-chromen-2-yl]methyl}amine hydrochloride] | 10 to 50 nM | 80% | < 50 nM |
